# Data taken from patent US20070049593A1 (priority 2004, published 2007).
# Structures can show the parent of a compound that is named as a salt.
# Target: T1, HCV polymerase (Hepatitis C virus genotype 1b, UniProt P26663)
# T1 construct: a region encoding NS5B (J Virol 1991 March, 65(3), 1105-13, 544 amino acids after deletion of 47 amino acids on the C-terminal); 6xHis (C); made in house; host or cells: Escherichia coli
# Assay: biochemical
# Parameters: species or system HCV BK strain
# Conditions: not given
# Procedure, shortened: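 Recombinant HCV BK-strain NS5B (C-terminal 47 aa deleted, His6-tagged, E. coli), 0.5 μg/ml, run with 5 μg/ml in vitro-transcribed RNA template (polyU/3′X), ATP/GTP/CTP 50 μM, UTP 2 μM plus [3H]UTP, pH 7.5, 25° C, 90 min. TCA-precipitated RNA counted by scintillation; IC50 from activity with vs without compound.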
# T1 sequence (P26663 2420-2963): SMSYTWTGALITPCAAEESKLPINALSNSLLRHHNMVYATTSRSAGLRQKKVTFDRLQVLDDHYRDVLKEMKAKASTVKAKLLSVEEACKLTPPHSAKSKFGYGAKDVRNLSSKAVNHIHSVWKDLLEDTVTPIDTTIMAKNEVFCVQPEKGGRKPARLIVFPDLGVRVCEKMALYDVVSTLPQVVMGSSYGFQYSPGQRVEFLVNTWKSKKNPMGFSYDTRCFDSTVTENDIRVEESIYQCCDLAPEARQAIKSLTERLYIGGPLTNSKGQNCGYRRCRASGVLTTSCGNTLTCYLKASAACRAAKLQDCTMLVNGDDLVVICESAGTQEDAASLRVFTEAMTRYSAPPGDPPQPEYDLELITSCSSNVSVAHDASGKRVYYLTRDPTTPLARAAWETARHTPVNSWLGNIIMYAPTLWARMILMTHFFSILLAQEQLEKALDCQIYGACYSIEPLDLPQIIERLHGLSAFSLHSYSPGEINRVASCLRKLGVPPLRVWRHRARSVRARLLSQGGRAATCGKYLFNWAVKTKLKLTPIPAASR
row,SMILES,IC50 [nM]
1,"CC1CCCN(CCN2CCn3c(c(C4CCCCC4)c4ccc(C(=O)O)cc43)-c3ccc(F)cc32)C1 (centres unmarked) [Example 1-254, 13-cyclohexyl-3-fluoro-5-[2-(3-methylpiperidin-1-yl)ethyl]-6,7-dihydro-5H-benzo[5,6][1,4]diazepino[7,1-a]indole-10-carboxylic acid dihydrochloride]",< 100
2,"CC1CN(CCN2CCn3c(c(C4CCCCC4)c4ccc(C(=O)O)cc43)-c3ccccc32)CCO1 (centres unmarked) [Example 1-255, 13-cyclohexyl-5-[2-(2-methylmorpholin-4-yl)ethyl]-6,7-dihydro-5H-benzo[5,6][1,4]diazepino[7,1-a]indole-10-carboxylic acid dihydrochloride]",< 100
3,"CCC1CN(CCN2CCn3c(c(C4CCCCC4)c4ccc(C(=O)O)cc43)-c3ccccc32)CCO1 (centres unmarked) [Example 1-256, 13-cyclohexyl-5-[2-(2-ethylmorpholin-4-yl)ethyl]-6,7-dihydro-5H-benzo[5,6][1,4]diazepino[7,1-a]indole-10-carboxylic acid dihydrochloride]",< 100
4,"CCC1COCCN1CCN1CCn2c(c(C3CCCCC3)c3ccc(C(=O)O)cc32)-c2ccccc21 (centres unmarked) [Example 1-257, 13-cyclohexyl-5-[2-(3-ethylmorpholin-4-yl)ethyl]-6,7-dihydro-5H-benzo[5,6][1,4]diazepino[7,1-a]indole-10-carboxylic acid dihydrochloride]",< 100
5,"Cc1ccc2c(c1)N(CCN1CCCCC1C)CCn1c-2c(C2CCCCC2)c2ccc(C(=O)O)cc21 (centres unmarked) [Example 1-258, 13-cyclohexyl-3-methyl-5-[2-(2-methylpiperidin-1-yl)ethyl]-6,7-dihydro-5H-benzo[5,6][1,4]diazepino[7,1-a]indole-10-carboxylic acid dihydrochloride]",< 100
6,"Cc1ccc2c(c1)N(CCN1CCC(C)CC1)CCn1c-2c(C2CCCCC2)c2ccc(C(=O)O)cc21 [Example 1-259, 13-cyclohexyl-3-methyl-5-[2-(4-methylpiperidin-1-yl)ethyl]-6,7-dihydro-5H-benzo[5,6][1,4]diazepino[7,1-a]indole-10-carboxylic acid dihydrochloride]",< 100
7,"Cc1ccc2c(c1)N(CCN1CCCC1)CCn1c-2c(C2CCCCC2)c2ccc(C(=O)O)cc21 [Example 1-260, 13-cyclohexyl-3-methyl-5-[2-(pyrrolidin-1-yl)ethyl]-6,7-dihydro-5H-benzo[5,6][1,4]diazepino[7,1-a]indole-10-carboxylic acid dihydrochloride]",< 100
8,"CCN1CCCC(CCN2CCn3c(c(C4CCCCC4)c4ccc(C(=O)O)cc43)-c3ccc(Cl)cc32)C1 (centres unmarked) [Example 1-261, 3-chloro-13-cyclohexyl-5-[2-(1-ethylpiperidin-3-yl)ethyl]-6,7-dihydro-5H-benzo[5,6][1,4]diazepino[7,1-a]indole-10-carboxylic acid dihydrochloride]",< 100
9,"CN1CCC(OCCN2CCn3c(c(C4CCCCC4)c4ccc(C(=O)O)cc43)-c3ccc(Cl)cc32)CC1 [Example 1-262, 3-chloro-13-cyclohexyl-5-[2-(1-methylpiperidin-4-yloxy)ethyl]-6,7-dihydro-5H-benzo[5,6][1,4]diazepino[7,1-a]indole-10-carboxylic acid dihydrochloride]",< 100
10,"CC(C)CN1CCCC(CCN2CCn3c(c(C4CCCCC4)c4ccc(C(=O)O)cc43)-c3ccc(Cl)cc32)C1 (centres unmarked) [Example 1-263, 3-chloro-13-cyclohexyl-5-[2-(1-isobutylpiperidin-3-yl)ethyl]-6,7-dihydro-5H-benzo[5,6][1,4]diazepino[7,1-a]indole-10-carboxylic acid dihydrochloride]",< 100
11,"O=C(O)c1ccc2c(C3CCCCC3)c3n(c2c1)CCN(CCC1CCCN(C2CCCC2)C1)c1cc(Cl)ccc1-3 (centres unmarked) [Example 1-264, 3-chloro-13-cyclohexyl-5-[2-(1-cyclopentylpiperidin-3-yl)ethyl]-6,7-dihydro-5H-benzo[5,6][1,4]diazepino[7,1-a]indole-10-carboxylic acid dihydrochloride]",< 100
12,"COC1CCCN(CCN2CCn3c(c(C4CCCCC4)c4ccc(C(=O)O)cc43)-c3ccc(Cl)cc32)C1 (centres unmarked) [Example 1-265, 3-chloro-13-cyclohexyl-5-[2-(3-methoxypiperidin-1-yl)ethyl]-6,7-dihydro-5H-benzo[5,6][1,4]diazepino[7,1-a]indole-10-carboxylic acid dihydrochloride]",< 100
13,"COC1CCCN(CCN2CCn3c(c(C4CCCCC4)c4ccc(C(=O)O)cc43)-c3ccc(C)cc32)C1 (centres unmarked) [Example 1-266, 13-cyclohexyl-5-[2-(3-methoxypiperidin-1-yl)ethyl]-3-methyl-6,7-dihydro-5H-benzo[5,6][1,4]diazepino[7,1-a]indole-10-carboxylic acid dihydrochloride]",< 100
14,"CCCC1CCCN(CCN2CCn3c(c(C4CCCCC4)c4ccc(C(=O)O)cc43)-c3ccc(Cl)cc32)C1 (centres unmarked) [Example 1-267, 3-chloro-13-cyclohexyl-5-[2-(3-propylpiperidin-1-yl)ethyl]-6,7-dihydro-5H-benzo[5,6][1,4]diazepino[7,1-a]indole-10-carboxylic acid dihydrochloride]",< 100
15,"O=C(O)c1ccc2c(C3CCCCC3)c3n(c2c1)CCN(CCCN1CCCC1)c1cc(Cl)ccc1-3 [Example 1-269, 3-chloro-13-cyclohexyl-5-[3-(pyrrolidin-1-yl)propyl]-6,7-dihydro-5H-benzo[5,6][1,4]diazepino[7,1-a]indole-10-carboxylic acid dihydrochloride]",< 100
16,"O=C(O)c1ccc2c(C3CCCCC3)c3n(c2c1)CCN(CCCN1CCCOCC1)c1cc(Cl)ccc1-3 [Example 1-270, 3-chloro-13-cyclohexyl-5-[3-(1,4-oxazepan-4-yl)propyl]-6,7-dihydro-5H-benzo[5,6][1,4]diazepino[7,1-a]indole-10-carboxylic acid dihydrochloride]",< 100
17,"COCC1CCCCN1CCN1CCn2c(c(C3CCCCC3)c3ccc(C(=O)O)cc32)-c2ccccc21 (centres unmarked) [Example 1-271, 13-cyclohexyl-5-[2-(2-methoxymethylpiperidin-1-yl)ethyl]-6,7-dihydro-5H-benzo[5,6][1,4]diazepino[7,1-a]indole-10-carboxylic acid dihydrochloride]",< 100
18,"CCC1CCCN(CCN2CCn3c(c(C4CCCCC4)c4ccc(C(=O)O)cc43)-c3ccc(C)cc32)C1 (centres unmarked) [Example 1-272, 13-cyclohexyl-5-[2-(3-ethylpiperidin-1-yl)ethyl]-3-methyl-6,7-dihydro-5H-benzo[5,6][1,4]diazepino[7,1-a]indole-10-carboxylic acid dihydrochloride]",< 100
19,"CCN1CCCC(CCN2CCn3c(c(C4CCCCC4)c4ccc(C(=O)O)cc43)-c3ccc(C)cc32)C1 (centres unmarked) [Example 1-273, 13-cyclohexyl-5-[2-(1-ethylpiperidin-3-yl)ethyl]-3-methyl-6,7-dihydro-5H-benzo[5,6][1,4]diazepino[7,1-a]indole-10-carboxylic acid dihydrochloride]",< 100
20,"Cc1ccc2c(c1)N(CCC1CCCN(C)C1)CCn1c-2c(C2CCCCC2)c2ccc(C(=O)O)cc21 (centres unmarked) [Example 1-274, 13-cyclohexyl-3-methyl-5-[2-(1-methylpiperidin-3-yl)ethyl]-6,7-dihydro-5H-benzo[5,6][1,4]diazepino[7,1-a]indole-10-carboxylic acid dihydrochloride]",< 100
21,"Cc1ccc2c(c1)N(CCC1CCCN(C(C)C)C1)CCn1c-2c(C2CCCCC2)c2ccc(C(=O)O)cc21 (centres unmarked) [Example 1-275, 13-cyclohexyl-5-[2-(1-isopropylpiperidin-3-yl)ethyl]-3-methyl-6,7-dihydro-5H-benzo[5,6][1,4]diazepino[7,1-a]indole-10-carboxylic acid dihydrochloride]",< 100
22,"CCOc1ccc2c(c1)N(CCN1CCCCC1)CCn1c-2c(C2CCCCC2)c2ccc(C(=O)O)cc21 [Example 1-276, 13-cyclohexyl-3-ethoxy-5-[2-(piperidin-1-yl)ethyl]-6,7-dihydro-5H-benzo[5,6][1,4]diazepino[7,1-a]indole-10-carboxylic acid dihydrochloride]",< 100
23,"O=C(O)c1ccc2c(C3CCCCC3)c3n(c2c1)CCN(CCN1CCCCCCC1)c1cc(Cl)ccc1-3 [Example 1-277, 5-[2-(azocan-1-yl)ethyl]-3-chloro-13-cyclohexyl-6,7-dihydro-5H-benzo[5,6][1,4]diazepino[7,1-a]indole-10-carboxylic acid dihydrochloride]",< 100
24,"Cc1ccc2c(c1)N(CCN1CCCCCCC1)CCn1c-2c(C2CCCCC2)c2ccc(C(=O)O)cc21 [Example 1-278, 5-[2-(azocan-1-yl)ethyl]-13-cyclohexyl-3-methyl-6,7-dihydro-5H-benzo[5,6][1,4]diazepino[7,1-a]indole-10-carboxylic acid dihydrochloride]",< 100
25,"CC(=O)N1CCC(N(C)CCN2CCn3c(c(C4CCCCC4)c4ccc(C(=O)O)cc43)-c3ccccc32)CC1 [Example 1-279, 5-{2-[N-(1-acetylpiperidin-4-yl)-N-methylamino]ethyl}-13-cyclohexyl-6,7-dihydro-5H-benzo[5,6][1,4]diazepino[7,1-a]indole-10-carboxylic acid monohydrochloride]",< 100

# Same assay, conditions: 25° C., 90 min; [5,6-3H]UTP incorporation into RNA; read-out: HCV polymerase inhibitory activity IC50
row,SMILES,IC50 [nM]
1,"CCCC1CCCN(CCN2CCn3c(c(C4CCCCC4)c4ccc(C(=O)O)cc43)-c3ccc(C)cc32)C1 (centres unmarked) [Example 1-268, 13-cyclohexyl-3-methyl-5-[2-(3-propylpiperidin-1-yl)ethyl]-6,7-dihydro-5H-benzo[5,6][1,4]diazepino[7,1-a]indole-10-carboxylic acid dihydrochloride]",< 100
